Drawing on publication PMC2577671, “Evaluation of Dimebon in cellular model of Huntington's disease” (Molecular Neurodegeneration, 2008), this text covers inhibition for one compound.

Holding throughout (experiment): biochemical
What all share (design): MDS Pharma Lead Profiling screen, binding assays, per cent inhibition, duplicate

For one test, the target named is T1, Adenosine A3 (Homo sapiens, UniProt P0DMS8).
T1 construct: gene ADORA3
How it is done:
(§1) The activity of Dimebon against selected set of biochemical targets was performed by MDS Pharma Services . The Dimebon was provided to MDS Pharma as dry powder, dissolved in DMSO and tested in 10 μM concentrations. The standard Lead Profiling + CYP450 screen was performed according to MDS Pharma specifications with additional custom-chosen targets added to the screen as indicated. To further understand potential mechanisms responsible for clinical effects of Dimebon, we evaluated Dimebon against a set of selected biochemical targets. Dimebon evaluation was performed by MDS Pharma Services . The standard Lead Profiling + CYP450 screen was performed with additional custom-selected targets added to the screen. The results of the screen obtained at 10 μM of Dimebon are provided as Additional File 3. […] Low affinity (50–60% inhibition) interactions were also observed for CYP450, 2C19 receptor, voltage-gated L-type Ca^2+ channel, Dopamine D4.2 receptor, and Serotonin 5-HT1 receptor. […] Supplementary file 1750-1326-3-15-S3.pdf: Additional file 3 The results of Dimebon screening against a selected set of biochemical targets. The complete results obtained by MDS Pharma with a selected list of biochemical targets using 10 μM of Dimebon as a probe. The Cat numbers refer to the MDS Pharma Services assay specification. The receptors and species are listed. Dimebon was tested at 10 μM concentratio in duplicate. The % inhibition by Dimebon is shown numerically and graphically for each receptor. Significant targets (defined as % inhibition > 50%) are highlighted in yellow. Click here for file

For the next test, the target named is T2, Adrenergic beta2 (Homo sapiens, UniProt P07550).
T2 construct: gene ADRB2
How it is done:
as §1

The target of the next test is T3, Bradykinin B1 (Homo sapiens, UniProt P46663).
T3 construct: gene BDKRB1
How it is done:
as §1

For a further test, the target named is T4, Calcium Channel N-Type (Rattus norvegicus, UniProt Q02294).
T4 construct: gene Cacna1b
As to the method:
as §1

For another test, the target named is T5, Dopamine D2S receptor (Homo sapiens, UniProt P14416).
T5 construct: gene DRD2; D2S
As to the method:
as §1

The next test addresses T6, Glucocorticoid (Homo sapiens, UniProt P04150).
T6 construct: gene NR3C1
How it is done: as §1

Another test addresses T7, Histamine H1 receptor (Homo sapiens, UniProt P35367).
T7 construct: gene HRH1
How it is done:
as §1

For another test, the target named is T8, Histamine H2 receptor (Homo sapiens, UniProt P25021).
T8 construct: gene HRH2
As to the method:
as §1

Another test concerns the target T9, Neuropeptide Y Y1 (Homo sapiens, UniProt P25929).
T9 construct: gene NPY1R
As to the method:
as §1

In another test the target is T10, Opiate delta (OP1, DOP) (Homo sapiens, UniProt P41143).
T10 construct: gene OPRD1
How it is done:
as §1

The target of another test is T11, Serotonin 5-HT1B (Rattus norvegicus, UniProt P28564).
T11 construct: gene Htr1b
How it is done:
as §1

The next test addresses T12, Serotonin 5-HT2B (Homo sapiens, UniProt P41595).
T12 construct: gene HTR2B
As to the method:
as §1

The target in a further test is T13, Serotonin 5-HT3 (Homo sapiens, UniProt P46098).
T13 construct: gene HTR3A
As to the method:
as §1

Another test concerns the target T14, Serotonin 5-HT4 (Cavia porcellus, UniProt O70528).
T14 construct: gene HTR4
As to the method:
as §1

The target of test [1] is T15, Serotonin 5-HT5A receptor (Homo sapiens, UniProt P47898).
T15 construct: gene HTR5A
As to the method:
as §1

The next test deals with T16, Serotonin 5-HT6 receptor (Homo sapiens, UniProt P50406).
T16 construct: gene HTR6
How it is done:
as §1

The target of the next test is T17, Sigma 2 (Rattus norvegicus, UniProt Q5U3Y7).
T17 construct: gene Tmem97
How it is done:
as §1

Another test deals with T18, Tachykinin NK1 (Homo sapiens, UniProt P25103).
T18 construct: gene TACR1
As to the method: as §1

Test [2] has as its target T19, Transporter, Norepinephrine (NET) (Homo sapiens, UniProt P23975).
T19 construct: gene SLC6A2
How it is done:
as §1

In test [3] the target is T20, Transporter, Serotonin (SERT) (Homo sapiens, UniProt P31645).
T20 construct: gene SLC6A4
How it is done: as §1

The next test addresses T21, α2A-Adrenergic receptor (Homo sapiens, UniProt P08913).
T21 construct: gene ADRA2A
How it is done: as §1

T7 sequence (P35367 whole entry): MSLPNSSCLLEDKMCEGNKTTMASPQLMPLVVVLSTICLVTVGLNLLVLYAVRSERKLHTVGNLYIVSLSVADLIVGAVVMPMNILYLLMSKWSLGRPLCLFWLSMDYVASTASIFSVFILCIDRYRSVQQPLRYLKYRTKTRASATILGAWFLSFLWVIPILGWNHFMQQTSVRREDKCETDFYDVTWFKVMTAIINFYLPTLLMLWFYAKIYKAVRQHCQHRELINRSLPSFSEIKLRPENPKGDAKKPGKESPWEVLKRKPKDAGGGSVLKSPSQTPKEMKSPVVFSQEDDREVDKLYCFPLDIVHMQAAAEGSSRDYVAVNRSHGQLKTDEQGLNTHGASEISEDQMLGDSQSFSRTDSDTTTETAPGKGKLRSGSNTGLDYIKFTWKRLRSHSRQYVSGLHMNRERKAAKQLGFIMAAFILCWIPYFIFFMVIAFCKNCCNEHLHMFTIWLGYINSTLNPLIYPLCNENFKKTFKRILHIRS
T4 sequence (Q02294 whole entry): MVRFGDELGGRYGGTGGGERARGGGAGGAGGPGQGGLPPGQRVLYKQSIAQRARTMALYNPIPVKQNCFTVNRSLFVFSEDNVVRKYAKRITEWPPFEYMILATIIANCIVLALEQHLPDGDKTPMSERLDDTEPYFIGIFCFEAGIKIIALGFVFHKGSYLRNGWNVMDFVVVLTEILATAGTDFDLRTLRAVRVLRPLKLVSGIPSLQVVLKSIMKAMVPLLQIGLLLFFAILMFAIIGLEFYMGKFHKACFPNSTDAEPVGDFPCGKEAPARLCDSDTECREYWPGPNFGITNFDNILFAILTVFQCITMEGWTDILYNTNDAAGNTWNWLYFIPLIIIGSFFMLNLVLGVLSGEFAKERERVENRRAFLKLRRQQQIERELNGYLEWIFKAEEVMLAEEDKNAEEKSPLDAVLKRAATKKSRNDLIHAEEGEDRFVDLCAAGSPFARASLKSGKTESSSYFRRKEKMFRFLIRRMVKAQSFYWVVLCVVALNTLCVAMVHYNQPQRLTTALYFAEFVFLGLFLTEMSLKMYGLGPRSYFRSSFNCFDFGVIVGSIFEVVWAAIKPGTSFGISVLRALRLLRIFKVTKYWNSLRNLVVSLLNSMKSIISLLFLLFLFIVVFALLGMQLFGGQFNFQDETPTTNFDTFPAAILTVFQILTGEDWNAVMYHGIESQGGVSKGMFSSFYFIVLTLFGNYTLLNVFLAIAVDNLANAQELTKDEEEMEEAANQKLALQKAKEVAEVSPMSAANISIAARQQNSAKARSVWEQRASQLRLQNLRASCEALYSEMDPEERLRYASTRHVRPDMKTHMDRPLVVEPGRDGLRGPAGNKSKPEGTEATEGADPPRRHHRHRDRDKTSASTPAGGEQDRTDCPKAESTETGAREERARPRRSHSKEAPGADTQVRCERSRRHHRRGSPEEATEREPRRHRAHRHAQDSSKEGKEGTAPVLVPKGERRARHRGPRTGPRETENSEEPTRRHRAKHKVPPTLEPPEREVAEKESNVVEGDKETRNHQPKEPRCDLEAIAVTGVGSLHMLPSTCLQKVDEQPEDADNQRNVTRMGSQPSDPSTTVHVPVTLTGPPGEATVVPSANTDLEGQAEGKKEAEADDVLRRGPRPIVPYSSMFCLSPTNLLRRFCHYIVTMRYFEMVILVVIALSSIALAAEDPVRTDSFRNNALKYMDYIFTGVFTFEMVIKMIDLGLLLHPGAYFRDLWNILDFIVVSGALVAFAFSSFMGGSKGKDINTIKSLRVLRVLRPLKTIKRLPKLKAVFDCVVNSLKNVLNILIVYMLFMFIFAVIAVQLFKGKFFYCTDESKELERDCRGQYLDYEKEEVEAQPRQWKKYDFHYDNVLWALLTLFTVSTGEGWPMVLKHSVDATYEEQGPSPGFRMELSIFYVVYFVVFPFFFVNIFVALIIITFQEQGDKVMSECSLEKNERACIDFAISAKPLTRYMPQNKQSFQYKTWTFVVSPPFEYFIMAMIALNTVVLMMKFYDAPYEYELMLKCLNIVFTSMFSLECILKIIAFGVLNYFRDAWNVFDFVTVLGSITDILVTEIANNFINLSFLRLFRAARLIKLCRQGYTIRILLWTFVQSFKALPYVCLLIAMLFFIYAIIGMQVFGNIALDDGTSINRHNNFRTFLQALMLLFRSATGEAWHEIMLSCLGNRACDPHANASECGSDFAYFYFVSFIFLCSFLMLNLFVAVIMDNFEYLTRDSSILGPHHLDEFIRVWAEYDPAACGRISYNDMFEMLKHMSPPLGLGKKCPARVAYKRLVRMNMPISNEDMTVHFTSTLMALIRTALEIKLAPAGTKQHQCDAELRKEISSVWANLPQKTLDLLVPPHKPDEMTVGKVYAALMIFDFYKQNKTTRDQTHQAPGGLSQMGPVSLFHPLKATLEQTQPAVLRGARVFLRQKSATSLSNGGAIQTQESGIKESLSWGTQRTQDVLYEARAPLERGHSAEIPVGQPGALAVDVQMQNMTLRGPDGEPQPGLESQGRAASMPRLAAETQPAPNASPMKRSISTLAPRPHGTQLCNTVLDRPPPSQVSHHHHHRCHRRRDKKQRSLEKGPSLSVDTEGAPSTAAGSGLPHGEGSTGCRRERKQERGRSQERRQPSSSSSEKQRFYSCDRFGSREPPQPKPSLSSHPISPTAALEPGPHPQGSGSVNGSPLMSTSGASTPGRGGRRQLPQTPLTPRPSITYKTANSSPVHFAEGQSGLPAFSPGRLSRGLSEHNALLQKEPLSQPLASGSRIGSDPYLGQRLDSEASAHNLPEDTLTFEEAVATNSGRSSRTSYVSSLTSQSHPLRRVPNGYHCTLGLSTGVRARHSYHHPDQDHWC
T18 sequence (P25103 whole entry): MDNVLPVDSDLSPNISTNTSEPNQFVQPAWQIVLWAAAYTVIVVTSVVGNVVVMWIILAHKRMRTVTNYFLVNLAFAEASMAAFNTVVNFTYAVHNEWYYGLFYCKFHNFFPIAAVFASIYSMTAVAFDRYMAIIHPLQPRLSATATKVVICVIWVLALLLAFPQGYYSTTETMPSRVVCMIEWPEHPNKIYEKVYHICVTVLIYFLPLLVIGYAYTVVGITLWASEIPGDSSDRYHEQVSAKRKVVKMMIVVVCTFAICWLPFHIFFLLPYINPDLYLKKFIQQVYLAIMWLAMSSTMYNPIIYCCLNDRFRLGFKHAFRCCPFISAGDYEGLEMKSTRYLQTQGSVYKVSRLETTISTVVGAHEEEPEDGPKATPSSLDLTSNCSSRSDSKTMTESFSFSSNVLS
T14 sequence (O70528 whole entry): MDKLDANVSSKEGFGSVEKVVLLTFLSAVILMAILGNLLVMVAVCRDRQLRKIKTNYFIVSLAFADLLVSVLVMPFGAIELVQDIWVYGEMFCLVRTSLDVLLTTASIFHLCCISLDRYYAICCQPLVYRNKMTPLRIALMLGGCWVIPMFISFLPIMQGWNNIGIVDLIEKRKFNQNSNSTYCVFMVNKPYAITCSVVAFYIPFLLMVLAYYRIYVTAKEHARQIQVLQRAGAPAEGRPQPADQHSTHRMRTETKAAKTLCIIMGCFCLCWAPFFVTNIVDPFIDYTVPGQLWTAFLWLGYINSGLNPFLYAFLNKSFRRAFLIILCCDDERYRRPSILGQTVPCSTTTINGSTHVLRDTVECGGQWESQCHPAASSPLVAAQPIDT
T21 sequence (P08913 whole entry): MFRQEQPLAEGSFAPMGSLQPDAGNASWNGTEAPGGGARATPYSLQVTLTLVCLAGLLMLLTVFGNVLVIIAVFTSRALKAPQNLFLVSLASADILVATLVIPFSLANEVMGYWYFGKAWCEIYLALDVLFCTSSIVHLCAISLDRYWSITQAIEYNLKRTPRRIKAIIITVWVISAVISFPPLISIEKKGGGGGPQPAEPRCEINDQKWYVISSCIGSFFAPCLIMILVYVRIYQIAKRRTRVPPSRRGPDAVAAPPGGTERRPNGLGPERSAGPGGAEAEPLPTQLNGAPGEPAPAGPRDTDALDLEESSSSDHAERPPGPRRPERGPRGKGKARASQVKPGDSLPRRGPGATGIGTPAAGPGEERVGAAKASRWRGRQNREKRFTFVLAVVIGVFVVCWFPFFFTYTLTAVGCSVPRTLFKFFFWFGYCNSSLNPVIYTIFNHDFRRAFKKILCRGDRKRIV
T2 sequence (P07550 whole entry): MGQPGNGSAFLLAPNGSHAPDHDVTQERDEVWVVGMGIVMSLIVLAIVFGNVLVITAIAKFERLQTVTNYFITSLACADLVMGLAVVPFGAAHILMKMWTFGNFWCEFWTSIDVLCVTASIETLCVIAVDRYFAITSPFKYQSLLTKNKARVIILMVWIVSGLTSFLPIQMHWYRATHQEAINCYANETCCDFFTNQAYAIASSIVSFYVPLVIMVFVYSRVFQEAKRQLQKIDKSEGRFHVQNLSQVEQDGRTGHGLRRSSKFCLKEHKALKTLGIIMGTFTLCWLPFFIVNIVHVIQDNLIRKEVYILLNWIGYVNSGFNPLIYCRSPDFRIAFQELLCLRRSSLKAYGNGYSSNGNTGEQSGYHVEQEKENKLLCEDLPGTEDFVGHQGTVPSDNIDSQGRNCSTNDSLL
T8 sequence (P25021 whole entry): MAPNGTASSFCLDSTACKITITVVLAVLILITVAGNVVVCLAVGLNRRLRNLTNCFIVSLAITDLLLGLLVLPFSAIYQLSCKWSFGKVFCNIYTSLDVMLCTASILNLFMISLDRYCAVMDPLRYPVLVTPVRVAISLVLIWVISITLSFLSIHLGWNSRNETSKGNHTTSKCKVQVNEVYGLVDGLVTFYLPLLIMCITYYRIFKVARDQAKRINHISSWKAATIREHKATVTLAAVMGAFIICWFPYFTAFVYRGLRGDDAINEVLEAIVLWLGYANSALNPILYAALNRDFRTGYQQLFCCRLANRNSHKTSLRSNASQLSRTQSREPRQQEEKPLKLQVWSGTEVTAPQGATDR
T17 sequence (Q5U3Y7 whole entry): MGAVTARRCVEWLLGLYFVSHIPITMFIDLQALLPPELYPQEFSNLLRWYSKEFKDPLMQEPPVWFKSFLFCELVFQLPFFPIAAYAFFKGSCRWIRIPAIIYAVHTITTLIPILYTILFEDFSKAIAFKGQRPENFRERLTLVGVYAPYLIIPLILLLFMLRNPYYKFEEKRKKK

Take `Cc1ccc2c(c1)c1c(n2CCc2ccc(C)nc2)CCN(C)C1` [Dimebon, 2,3,4,5-Tetrahydro-2,8-dimethyl-5-(2-(6-methyl-3-pyridyl)ethyl)-1H-pyrido(4,3-b)indole]: the inhibition at 10 µM at Adenosine A3 was 6%; on Adrenergic beta2 it was 14%; on Bradykinin B1, -9%; at Calcium Channel N-Type, 0%; on Dopamine D2S receptor, 83%; at Glucocorticoid, 3%. The inhibition at 10 µM at Histamine H1 receptor was 101%; on Histamine H2 receptor, 96%; on Neuropeptide Y Y1 it was 4%; at Opiate delta (OP1, DOP) it was 0%; at Serotonin 5-HT1B it was 48%; on Serotonin 5-HT2B, 74%. The inhibition at 10 µM is -7% at Serotonin 5-HT3; 17% at Serotonin 5-HT4; 99% in test [1]; 101% on Serotonin 5-HT6 receptor; 22% on Sigma 2; 20% at Tachykinin NK1. Besides, the values for the inhibition at 10 µM (in test [2]; in test [3]; at α2A-Adrenergic receptor) were 20%, -7% and 97%, respectively.

The inhibition is the change of the read-out against control, counted positive when it falls.
